Measurements from PubChem BioAssay (NCI).
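Assay format: 96-well plates, 48-hour exposure. Here, GI50 denotes the concentration required for 50% inhibition of growth. Definition used: TGI = concentration required for complete inhibition of growth.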

How the values were obtained:
Assay in all cases: NCI anticancer screen, dose series, 48 h
ACHN renal = system: ACHN renal
OVCAR-8 ovarian = system: OVCAR-8 ovarian
MDA-MB-231 breast = system: MDA-MB-231 breast
K-562 leukemia = system: K-562 leukemia
SF-295 CNS = system: SF-295 CNS
U251 CNS = system: U251 CNS
HOP-62 NSCLC = system: HOP-62 NSCLC
EKVX NSCLC = system: EKVX NSCLC
SK-OV-3 ovarian = system: SK-OV-3 ovarian
MDA-MB-435 = system: MDA-MB-435
OVCAR-3 ovarian = system: OVCAR-3 ovarian
SF-539 CNS = system: SF-539 CNS
RPMI-8226 leukemia = system: RPMI-8226 leukemia
NCI-H226 lung = system: NCI-H226 lung
SK-MEL-28 melanoma = system: SK-MEL-28 melanoma
HCT-116 colon = system: HCT-116 colon
OVCAR-4 ovarian = system: OVCAR-4 ovarian
NCI-H23 lung = system: NCI-H23 lung
SF-268 CNS = system: SF-268 CNS
HOP-92 NSCLC = system: HOP-92 NSCLC
SW-620 colon = system: SW-620 colon
CCRF-CEM leukemia = system: CCRF-CEM leukemia
MOLT-4 leukemia = system: MOLT-4 leukemia
A498 renal = system: A498 renal
SN12C renal = system: SN12C renal
SNB-75 CNS = system: SNB-75 CNS
SK-MEL-2 melanoma = system: SK-MEL-2 melanoma
786-0 renal = system: 786-0 renal
HCT-15 colon = system: HCT-15 colon

Cc1ccc(NC(=O)Cn2c(Br)nc3c2c(=O)n(C)c(=O)n3C)cc1
GI50 (ACHN renal): 2.8 µM | TGI (ACHN renal): 8.12 µM | GI50 (OVCAR-8 ovarian): 4.89 µM | TGI (OVCAR-8 ovarian): 21.6 µM | GI50 (MDA-MB-231 breast): 2.44 µM | TGI (MDA-MB-231 breast): 6.42 µM | GI50 (K-562 leukemia): 18.5 µM | TGI (K-562 leukemia): 74.5 µM | GI50 (SF-295 CNS): 9.84 µM | TGI (SF-295 CNS): 21.8 µM | GI50 (U251 CNS): 2.26 µM | TGI (U251 CNS): 5.75 µM | GI50 (HOP-62 NSCLC): 2.83 µM | TGI (HOP-62 NSCLC): 9.7 µM | GI50 (EKVX NSCLC): 10.7 µM | TGI (EKVX NSCLC): 25.9 µM | GI50 (SK-OV-3 ovarian): 2.15 µM | TGI (SK-OV-3 ovarian): 4.52 µM | GI50 (MDA-MB-435): 9.32 µM | TGI (MDA-MB-435): 21.2 µM | GI50 (OVCAR-3 ovarian): 2.31 µM | TGI (OVCAR-3 ovarian): 5.35 µM | GI50 (SF-539 CNS): 1.94 µM | TGI (SF-539 CNS): 4.21 µM | GI50 (RPMI-8226 leukemia): 3.25 µM | TGI (RPMI-8226 leukemia): 19.4 µM | GI50 (NCI-H226 lung): 2.07 µM | TGI (NCI-H226 lung): 4.76 µM | GI50 (SK-MEL-28 melanoma): 11.4 µM | TGI (SK-MEL-28 melanoma): 23.5 µM | GI50 (HCT-116 colon): 2.43 µM | TGI (HCT-116 colon): 8.02 µM | GI50 (OVCAR-4 ovarian): 2.1 µM | TGI (OVCAR-4 ovarian): 4.57 µM | GI50 (NCI-H23 lung): 6.31 µM | TGI (NCI-H23 lung): 22 µM | GI50 (SF-268 CNS): 8.3 µM | TGI (SF-268 CNS): 22.8 µM | GI50 (HOP-92 NSCLC): 1.9 µM | TGI (HOP-92 NSCLC): 5.29 µM | GI50 (SW-620 colon): 13.5 µM | TGI (SW-620 colon): 33.2 µM | GI50 (CCRF-CEM leukemia): 17.3 µM | TGI (CCRF-CEM leukemia): 65.8 µM | GI50 (MOLT-4 leukemia): 27.9 µM | TGI (MOLT-4 leukemia): > 100 µM | GI50 (A498 renal): 2.01 µM | TGI (A498 renal): 5.87 µM | GI50 (SN12C renal): 3.16 µM | TGI (SN12C renal): 10.8 µM | GI50 (SNB-75 CNS): 1.43 µM | TGI (SNB-75 CNS): 3.95 µM | GI50 (SK-MEL-2 melanoma): 13.4 µM | TGI (SK-MEL-2 melanoma): 27.4 µM | GI50 (786-0 renal): 2.32 µM | TGI (786-0 renal): 5.68 µM | GI50 (HCT-15 colon): 12.2 µM | TGI (HCT-15 colon): 29.3 µM
